# Target: T1, F508del (Homo sapiens, UniProt P13569, DEL508-508)
# T1 construct: expressed in transfected cells
# Assay: Protocol 2: FRET membrane potential optical assay (VIPR), identification of correction compounds
# Assay type: cell-based
# Settings: Table 3; compounds of Table 1 as modulators of CFTR activity; protocol not stated
# Summary of the method: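 NIH3T3 mouse fibroblasts stably expressing F508del were treated with test compound for 16 hrs at 37° C. in serum-free medium; 27° C. incubation served as positive control. F508del was activated with 10 μM forskolin plus 20 μM genistein in Cl^−-free medium, and Cl^− efflux-driven depolarization was read by DiSBAC2(3)/CC2-DMPE FRET.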
# T1 sequence (P13569 with tags, fused parts or gaps DEL508-508): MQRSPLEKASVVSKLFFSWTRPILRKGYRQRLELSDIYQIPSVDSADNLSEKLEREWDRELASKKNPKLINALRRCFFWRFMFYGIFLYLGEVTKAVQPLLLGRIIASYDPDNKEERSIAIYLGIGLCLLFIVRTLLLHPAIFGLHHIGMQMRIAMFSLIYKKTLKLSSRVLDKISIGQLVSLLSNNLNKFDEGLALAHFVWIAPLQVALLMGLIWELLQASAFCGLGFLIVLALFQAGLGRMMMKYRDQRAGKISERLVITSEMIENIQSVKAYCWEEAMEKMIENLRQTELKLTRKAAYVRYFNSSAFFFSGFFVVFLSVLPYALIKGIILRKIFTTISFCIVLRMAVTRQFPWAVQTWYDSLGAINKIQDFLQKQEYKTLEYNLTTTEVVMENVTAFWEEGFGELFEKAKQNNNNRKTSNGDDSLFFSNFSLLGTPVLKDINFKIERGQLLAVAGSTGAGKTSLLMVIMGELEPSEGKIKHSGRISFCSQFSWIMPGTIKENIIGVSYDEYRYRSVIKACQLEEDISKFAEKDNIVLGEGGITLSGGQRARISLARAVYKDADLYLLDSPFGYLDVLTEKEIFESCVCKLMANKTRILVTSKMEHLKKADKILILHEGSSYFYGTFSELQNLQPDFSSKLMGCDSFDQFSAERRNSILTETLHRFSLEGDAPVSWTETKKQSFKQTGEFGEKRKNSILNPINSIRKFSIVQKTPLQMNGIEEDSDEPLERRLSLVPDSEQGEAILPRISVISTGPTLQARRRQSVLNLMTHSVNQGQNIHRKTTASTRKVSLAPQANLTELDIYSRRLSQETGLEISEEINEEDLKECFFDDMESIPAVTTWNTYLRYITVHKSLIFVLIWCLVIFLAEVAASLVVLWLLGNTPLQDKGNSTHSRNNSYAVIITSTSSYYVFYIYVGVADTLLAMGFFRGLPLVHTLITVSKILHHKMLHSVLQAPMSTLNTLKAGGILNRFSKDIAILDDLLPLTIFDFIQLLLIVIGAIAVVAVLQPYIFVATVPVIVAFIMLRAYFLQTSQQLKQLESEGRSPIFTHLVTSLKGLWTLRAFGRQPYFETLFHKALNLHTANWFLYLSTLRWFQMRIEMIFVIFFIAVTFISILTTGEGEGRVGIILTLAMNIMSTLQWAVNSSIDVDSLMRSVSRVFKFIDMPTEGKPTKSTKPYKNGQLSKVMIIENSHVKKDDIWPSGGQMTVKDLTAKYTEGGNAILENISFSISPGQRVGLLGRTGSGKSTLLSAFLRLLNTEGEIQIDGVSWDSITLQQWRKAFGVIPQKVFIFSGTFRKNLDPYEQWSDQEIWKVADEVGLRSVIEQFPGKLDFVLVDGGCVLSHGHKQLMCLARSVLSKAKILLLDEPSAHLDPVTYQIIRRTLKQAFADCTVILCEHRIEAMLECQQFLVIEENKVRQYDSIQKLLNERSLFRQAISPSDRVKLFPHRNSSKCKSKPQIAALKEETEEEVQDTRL
row,EC30,Structure (SMILES)
1,+++ (“+++” means <3 uM),"Cc1cc(C)c(Cn2c(C(=O)NS(=O)(=O)c3ccccc3)cc3cc(Cl)ccc32)c(C)c1 [Compound 137, N-(benzenesulfonyl)-5-chloro-1-[(2,4,6-trimethylphenyl)methyl]indole-2-carboxamide]"
2,+++ (“+++” means <3 uM),"Cc1cc(C)c(Cn2c(C(=O)NS(=O)(=O)c3cccc(N)c3)cc3ccc(F)cc32)c(C)c1 [Compound 142, N-(3-aminophenyl)sulfonyl-6-fluoro-1-[(2,4,6-trimethylphenyl)methyl]indole-2-carboxamide]"
3,+++ (“+++” means <3 uM),"Cc1cc(C)c(Cn2c(C(=O)NS(=O)(=O)c3ccccc3)cc3c(C)cccc32)c(C)c1 [Compound 143, N-(benzenesulfonyl)-4-methyl-1-[(2,4,6-trimethylphenyl)methyl]indole-2-carboxamide]"
4,+++ (“+++” means <3 uM),"Cc1cc(C)c(Cn2c(C(=O)NS(=O)(=O)c3cccc(N)c3)cc3c(C)cccc32)c(C)c1 [Compound 144, N-(3-aminophenyl)sulfonyl-4-methyl-1-[(2,4,6-trimethylphenyl)methyl]indole-2-carboxamide]"
5,+++ (“+++” means <3 uM),"Cc1nc(-c2ccc(-c3cc(C(=O)NS(=O)(=O)c4ccccc4)n(Cc4c(C)cccc4C)n3)s2)no1 [Compound 151, N-(benzenesulfonyl)-2-[(2,6-dimethylphenyl)methyl]-5-[5-(5-methyl-1,2,4-oxadiazol-3-yl)-2-thienyl]pyrazole-3-carboxamide]"
6,+++ (“+++” means <3 uM),"CCOc1ccccc1-c1cc(C(=O)NS(=O)(=O)c2ccccc2)n(Cc2c(C)cccc2C)n1 [Compound 152, N-(benzenesulfonyl)-2-[(2,6-dimethylphenyl)methyl]-5-(2-ethoxyphenyl)pyrazole-3-carboxamide]"
7,+++ (“+++” means <3 uM),"Cc1cc(C)c(Cn2c(C(=O)NS(=O)(=O)c3cccc(N)c3)cc3cc(F)ccc32)c(C)c1 [Compound 153, N-(3-aminophenyl)sulfonyl-5-fluoro-1-[(2,4,6-trimethylphenyl)methyl]indole-2-carboxamide]"
8,++ (“++” means between 3 uM and 10 uM),"COc1cc(F)ccc1-c1cc(C(=O)NS(=O)(=O)c2ccccc2)n(Cc2c(C)cccc2C)n1 [Compound 155, N-(benzenesulfonyl)-2-[(2,6-dimethylphenyl)methyl]-5-(4-fluoro-2-methoxy-phenyl)pyrazole-3-carboxamide]"
9,+++ (“+++” means <3 uM),"Cc1cc(C)c(Cn2nc(C3(C)CC3)cc2C(=O)NS(=O)(=O)c2cccc(N)c2)c(C)c1 [Compound 158, N-(3-aminophenyl)sulfonyl-5-(1-methylcyclopropyl)-2-[(2,4,6-trimethylphenyl)methyl]pyrazole-3-carboxamide]"
10,+++ (“+++” means <3 uM),"CCN(CC)c1ccc(-c2cc(C(=O)NS(=O)(=O)c3ccccc3)n(Cc3c(C)cccc3C)n2)cc1 [Compound 162, N-(benzenesulfonyl)-5-[4-(diethylamino)phenyl]-2-[(2,6-dimethylphenyl)methyl]pyrazole-3-carboxamide]"
11,+++ (“+++” means <3 uM),"Cc1cccc(C)c1Cn1nc(-c2cccc(F)c2)cc1C(=O)NS(=O)(=O)c1ccccc1 [Compound 166, N-(benzenesulfonyl)-2-[(2,6-dimethylphenyl)methyl]-5-(3-fluorophenyl)pyrazole-3-carboxamide]"
12,++ (“++” means between 3 uM and 10 uM),"Cc1cc(C)c(Cn2nc(CC(C)C)cc2C(=O)NS(=O)(=O)c2cccc(N)c2)c(C)c1 [Compound 167, N-(3-aminophenyl)sulfonyl-5-isobutyl-2-[(2,4,6-trimethylphenyl)methyl]pyrazole-3-carboxamide]"
13,+++ (“+++” means <3 uM),"COc1cccc2c1cc(C(=O)NS(=O)(=O)c1cccc(N)c1)n2Cc1c(C)cccc1C [Compound 168, N-(3-aminophenyl)sulfonyl-1-[(2,6-dimethylphenyl)methyl]-4-methoxy-indole-2-carboxamide]"

# The next lines start with the compound.
row,Structure (SMILES),EC30
1,"Cc1cc(C)c(Oc2nc(-c3ccc(Cl)c(OCC(C)C)c3)ccc2C(=O)NS(=O)(=O)c2ccc[nH]c2=O)c(C)c1 [Compound 136, 6-(4-chloro-3-isobutoxy-phenyl)-N-[(2-oxo-1H-pyridin-3-yl)sulfonyl]-2-(2,4,6-trimethylphenoxy)pyridine-3-carboxamide]",+++ (“+++” means <3 uM)
2,"C[C@@H](c1ccccc1)n1nc(C(C)(C)C)cc1C(=O)NS(=O)(=O)c1cccc(N)c1 [Compound 138, N-(3-aminophenyl)sulfonyl-5-tert-butyl-2-[(1S)-1-phenylethyl]pyrazole-3-carboxamide]",++ (“++” means between 3 uM and 10 uM)
3,"Cc1cc(C)c(CN2CC(C)(C)c3ccccc3C2C(=O)NS(=O)(=O)c2cccc(N)n2)c(C)c1 (centres unmarked) [Compound 140, N-[(6-amino-2-pyridyl)sulfonyl]-4,4-dimethyl-2-[(2,4,6-trimethylphenyl)methyl]-1,3-dihydroisoquinoline-1-carboxamide]",+++ (“+++” means <3 uM)
4,"Cc1cc(C)c(Oc2nc(C(C)(C)C)cnc2C(=O)NS(=O)(=O)c2cccc(N)c2)c(C)c1 [Compound 141, N-(3-aminophenyl)sulfonyl-5-tert-butyl-3-(2,4,6-trimethylphenoxy)pyrazine-2-carboxamide]",+++ (“+++” means <3 uM)
5,"CC(C)(C)c1cc(C(=O)NS(=O)(=O)c2ccccc2)n(Cc2c(Cl)cc(Cl)cc2Cl)n1 [Compound 145, N-(benzenesulfonyl)-5-tert-butyl-2-[(2,4,6-trichlorophenyl)methyl]pyrazole-3-carboxamide]",+++ (“+++” means <3 uM)
6,"Cc1cc(C)c(Oc2nc(C(C)(C)C)ccc2C(=O)NS(=O)(=O)c2cccc3c2ccn3C)c(C)c1 [Compound 146, 6-tert-butyl-N-(1-methylindol-4-yl)sulfonyl-2-(2,4,6-trimethylphenoxy)pyridine-3-carboxamide]",+++ (“+++” means <3 uM)
7,"CC(C)c1ccccc1Oc1nc(C(C)(C)C)ccc1C(=O)NS(=O)(=O)c1ccccc1 [Compound 147, N-(benzenesulfonyl)-6-tert-butyl-2-(2-isopropylphenoxy)pyridine-3-carboxamide]",+++ (“+++” means <3 uM)
8,"Cc1cccc(C)c1Cn1nc(-c2ccccc2OC(F)(F)F)cc1C(=O)NS(=O)(=O)c1ccccc1 [Compound 149, N-(benzenesulfonyl)-2-[(2,6-dimethylphenyl)methyl]-5-[2-(trifluoromethoxy)phenyl]pyrazole-3-carboxamide]",+++ (“+++” means <3 uM)
9,"Cc1cccc(C)c1Cn1nc(C(C)(C)C)cc1C(=O)NS(=O)(=O)c1ccc(F)c(N)c1 [Compound 150, N-(3-amino-4-fluoro-phenyl)sulfonyl-5-tert-butyl-2-[(2,6-dimethylphenyl)methyl]pyrazole-3-carboxamide]",+++ (“+++” means <3 uM)
10,"CC(C)(C)c1ccc(C(=O)NS(=O)(=O)c2ccccc2)c(OCc2ccccn2)n1 [Compound 154, N-(benzenesulfonyl)-6-tert-butyl-2-(2-pyridylmethoxy)pyridine-3-carboxamide]",+++ (“+++” means <3 uM)
11,"Cc1cc(C(C)(C)C)cc(C)c1Cn1nc(C(C)(C)C)cc1C(=O)NS(=O)(=O)c1cccc(N)c1 [Compound 156, N-(3-aminophenyl)sulfonyl-5-tert-butyl-2-[(4-tert-butyl-2,6-dimethyl-phenyl)methyl]pyrazole-3-carboxamide]",+++ (“+++” means <3 uM)
12,"COc1ccccc1CCn1nc(C(C)(C)C)cc1C(=O)NS(=O)(=O)c1ccccc1 [Compound 157, N-(benzenesulfonyl)-5-tert-butyl-2-[2-(2-methoxyphenyl)ethyl]pyrazole-3-carboxamide]",++ (“++” means between 3 uM and 10 uM)
13,"Cc1cccc(C)c1Cn1nc(-c2ccc(OC(F)(F)F)cc2)cc1C(=O)NS(=O)(=O)c1ccccc1 [Compound 159, N-(benzenesulfonyl)-2-[(2,6-dimethylphenyl)methyl]-5-[4-(trifluoromethoxy)phenyl]pyrazole-3-carboxamide]",+++ (“+++” means <3 uM)
14,"CC(c1ccccc1)n1c(C(=O)NS(=O)(=O)c2ccccc2)cc2c(F)cccc21 (centres unmarked) [Compound 160, N-(benzenesulfonyl)-4-fluoro-1-(1-phenylethyl)indole-2-carboxamide]",+++ (“+++” means <3 uM)
15,"CCOc1ccc(-c2ccc(C(=O)NS(=O)(=O)c3cccc(N)n3)c(Oc3c(C)cc(C)cc3C)n2)cc1F [Compound 161, N-[(6-amino-2-pyridyl)sulfonyl]-6-(4-ethoxy-3-fluoro-phenyl)-2-(2,4,6-trimethylphenoxy)pyridine-3-carboxamide]",+++ (“+++” means <3 uM)
16,"Cc1cc(C)c(Oc2nc(C(C)(C)C)ccc2C(=O)NS(=O)(=O)c2cncc(N)c2)c(C)c1 [Compound 163, N-[(5-amino-3-pyridyl)sulfonyl]-6-tert-butyl-2-(2,4,6-trimethylphenoxy)pyridine-3-carboxamide]",+++ (“+++” means <3 uM)
17,"Cc1cc(C)c(Oc2nc(-c3ccc(C(C)C)cc3)ccc2C(=O)NS(=O)(=O)c2cccc(N)n2)c(C)c1 [Compound 164, N-[(6-amino-2-pyridyl)sulfonyl]-6-(4-isopropylphenyl)-2-(2,4,6-trimethylphenoxy)pyridine-3-carboxamide]",+++ (“+++” means <3 uM)
18,"CCC(c1ccccc1)n1nc(C(C)(C)C)cc1C(=O)NS(=O)(=O)c1cccc(N)c1 (centres unmarked) [Compound 165, N-(3-aminophenyl)sulfonyl-5-tert-butyl-2-(1-phenylpropyl)pyrazole-3-carboxamide]",+++ (“+++” means <3 uM)
19,"Cc1cc(C)c(Oc2nc(-c3cc(F)cc(OCC(C)C)c3)ccc2C(=O)NS(=O)(=O)c2ccc[nH]c2=O)c(C)c1 [Compound 169, 6-(3-fluoro-5-isobutoxy-phenyl)-N-[(2-oxo-1H-pyridin-3-yl)sulfonyl]-2-(2,4,6-trimethylphenoxy)pyridine-3-carboxamide]",+++ (“+++” means <3 uM)

# Reference: patent publication US10758534B2 (Vertex Pharmaceuticals Incorporated, priority 2014, dated 2020)
